The source made the active and inactive calls. The calls are words filed in the database; no cut-off is given here.
Tests used:
MDR1, BCRP = assay: Efflux ratio of apparent permeability across basolateral to apical side over apical to basolateral side in MDCKII-MDR1-BCRP cells at 1 uM incubated for 90 mins; type: ADME, cell-based, Canis lupus familiaris; settings: dog
[1] = Lipophilicity, logD of compound in octanol and aqueous buffer at pH 7.4 incubated for 2 hrs by shake-flask method based LC-MS/MS analysis; type: physicochemical
[2] = Metabolic stability in human liver microsomes assessed as intrinsic clearance at 1 uM incubated for 30 mins in presence of NADPH by LC-MS/MS analysis; type: ADME, Microsome; settings: read-out: CLH
[3] = Metabolic stability in rat hepatocytes assessed as intrinsic clearance measured per 10^6 cells at 1 uM incubated for 120 mins by LC-MS/MS analysis; type: ADME, cell-based, Hepatocyte; settings: read-out: CLH
[4] = Metabolic stability in CD-1 mouse hepatocytes assessed as intrinsic clearance measured per 10^6 cells at 1 uM incubated for 120 mins by LC-MS/MS analysis; type: ADME, cell-based, Hepatocyte; settings: read-out: CLH
[5] = Duration (time) of SCID mouse free plasma concentration cover over EGFR insSVD cell IC50 at 50 mg/kg, po; type: ADME, organism-based; settings: in vivo
[6] = Inhibition of EGFR Ex20ins ASV mutant (unknown origin) transfected in human NCI-H2073 cells; type: cell-based
[7] = Inhibition of EGFR Ex20ins NPG mutant (unknown origin) transfected in human NCI-H2073 cells; type: cell-based
[8] = target: T1, Tyrosine-protein kinase BTK (Homo sapiens, UniProt Q06187); assay: Inhibition of BTK (unknown origin) at 0.1 uM relative to control
[9] = target: T2, Receptor tyrosine-protein kinase erbB-4 (Homo sapiens, UniProt Q15303); assay: Inhibition of ERBB4 (unknown origin) at 0.1 uM relative to control
[10] = target: TRAF2 and NCK-interacting protein kinase (Homo sapiens) (UniProt Q9UKE5); assay: Inhibition of TNIK (unknown origin) at 0.1 uM relative to control
[11] = target: Misshapen-like kinase 1 (Homo sapiens) (UniProt Q8N4C8); assay: Inhibition of MINK1 (unknown origin) at 0.1 uM relative to control
[12] = target: Tyrosine-protein kinase Blk (Homo sapiens) (UniProt P51451); assay: Inhibition of BLK (unknown origin) at 0.1 uM relative to control
[13] = target: T1, Tyrosine-protein kinase BTK; assay: Inhibition of BTK (unknown origin)
[14] = target: T2, Receptor tyrosine-protein kinase erbB-4; assay: Inhibition of ERBB4 (unknown origin)
[15] = Antitumor activity against human NCI-H2073 cells harboring EGFR D770_N771insSVD mutant xenografted in female SCID mouse assessed as tumor growth inhibition at 100 mg/kg, po administered once daily for 14 days relative to control; type: functional; settings: NCI-H2073, 336 h, time 14 day, read-out: TGI
[16] = Toxicity in female SCID mouse xenografted with human NCI-H2073 cells harboring EGFR D770_N771insSVD mutant assessed as body weight loss at 100 mg/kg, po administered once daily for 14 days; type: organism-based; settings: in vivo, 336 h, time 14 day
[17] = Antitumor activity against human NCI-H2073 cells harboring wildtype EGFR xenografted in female SCID mouse assessed as tumor growth inhibition at 100 mg/kg, po administered once daily for 15 days relative to control; type: functional; settings: NCI-H2073, 360 h, time 15 day, read-out: TGI
Mus musculus = assay: In vivo inhibition of EGFR phosphorylation in female SCID mouse xenografted with NCI-H2073 cells harboring EGFR D770_N771insSVD mutant at 100 mg/kg, po measured after 1 to 6 hrs by immunoblotting analysis; type: functional, organism-based; settings: time 1-6 hrs

T2 sequence (Q15303 whole entry): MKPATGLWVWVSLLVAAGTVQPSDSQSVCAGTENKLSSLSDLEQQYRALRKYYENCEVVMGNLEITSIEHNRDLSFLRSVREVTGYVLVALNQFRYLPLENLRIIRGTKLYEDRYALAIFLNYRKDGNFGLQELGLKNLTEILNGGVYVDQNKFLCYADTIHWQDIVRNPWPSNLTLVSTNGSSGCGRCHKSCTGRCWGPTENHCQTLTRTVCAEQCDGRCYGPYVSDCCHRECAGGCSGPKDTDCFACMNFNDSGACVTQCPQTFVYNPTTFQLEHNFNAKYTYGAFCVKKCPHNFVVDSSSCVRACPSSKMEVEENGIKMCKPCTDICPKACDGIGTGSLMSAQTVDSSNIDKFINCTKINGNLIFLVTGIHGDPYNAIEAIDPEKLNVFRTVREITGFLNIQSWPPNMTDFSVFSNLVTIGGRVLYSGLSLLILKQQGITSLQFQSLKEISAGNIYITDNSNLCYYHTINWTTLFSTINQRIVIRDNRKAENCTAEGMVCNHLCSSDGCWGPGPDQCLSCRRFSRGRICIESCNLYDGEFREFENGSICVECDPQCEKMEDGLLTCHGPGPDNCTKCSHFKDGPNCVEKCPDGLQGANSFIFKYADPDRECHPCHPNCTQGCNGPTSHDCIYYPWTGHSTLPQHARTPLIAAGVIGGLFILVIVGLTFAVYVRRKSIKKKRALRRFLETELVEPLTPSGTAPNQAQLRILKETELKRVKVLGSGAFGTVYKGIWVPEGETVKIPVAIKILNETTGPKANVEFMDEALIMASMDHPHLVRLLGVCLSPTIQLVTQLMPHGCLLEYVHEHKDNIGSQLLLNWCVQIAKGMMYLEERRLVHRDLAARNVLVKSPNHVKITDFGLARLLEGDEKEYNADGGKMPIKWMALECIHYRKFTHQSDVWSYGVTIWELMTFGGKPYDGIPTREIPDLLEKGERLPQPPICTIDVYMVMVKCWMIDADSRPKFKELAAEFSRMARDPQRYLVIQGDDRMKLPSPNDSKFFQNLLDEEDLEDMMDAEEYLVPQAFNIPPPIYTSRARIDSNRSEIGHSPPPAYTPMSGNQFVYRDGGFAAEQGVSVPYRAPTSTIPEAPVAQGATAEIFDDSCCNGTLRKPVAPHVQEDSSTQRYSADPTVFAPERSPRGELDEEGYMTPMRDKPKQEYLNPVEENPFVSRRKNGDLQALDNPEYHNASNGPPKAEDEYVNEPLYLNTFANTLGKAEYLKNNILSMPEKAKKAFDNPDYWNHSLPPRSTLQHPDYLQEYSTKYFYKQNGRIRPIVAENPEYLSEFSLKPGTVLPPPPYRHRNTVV
T1 sequence (Q06187 whole entry): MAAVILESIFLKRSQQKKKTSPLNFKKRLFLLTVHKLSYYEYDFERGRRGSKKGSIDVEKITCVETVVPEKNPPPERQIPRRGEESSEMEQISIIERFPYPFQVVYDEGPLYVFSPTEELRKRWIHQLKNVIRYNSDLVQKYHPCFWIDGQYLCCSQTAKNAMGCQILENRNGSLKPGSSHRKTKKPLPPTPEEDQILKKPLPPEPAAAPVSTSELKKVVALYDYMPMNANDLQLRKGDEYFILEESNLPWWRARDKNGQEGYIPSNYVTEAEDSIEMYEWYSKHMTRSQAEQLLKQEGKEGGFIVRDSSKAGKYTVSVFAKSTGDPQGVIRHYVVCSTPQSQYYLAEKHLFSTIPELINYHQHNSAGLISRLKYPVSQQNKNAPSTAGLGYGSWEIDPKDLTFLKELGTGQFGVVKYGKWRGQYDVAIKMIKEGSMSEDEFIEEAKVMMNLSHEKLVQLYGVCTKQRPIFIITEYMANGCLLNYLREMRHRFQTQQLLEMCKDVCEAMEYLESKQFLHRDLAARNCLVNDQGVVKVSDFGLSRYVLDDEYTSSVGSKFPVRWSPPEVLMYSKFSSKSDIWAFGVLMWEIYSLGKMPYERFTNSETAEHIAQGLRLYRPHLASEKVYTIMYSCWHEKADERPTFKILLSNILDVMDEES
Sequence of Misshapen-like kinase 1 (Homo sapiens) (Q8N4C8 whole entry, looked up): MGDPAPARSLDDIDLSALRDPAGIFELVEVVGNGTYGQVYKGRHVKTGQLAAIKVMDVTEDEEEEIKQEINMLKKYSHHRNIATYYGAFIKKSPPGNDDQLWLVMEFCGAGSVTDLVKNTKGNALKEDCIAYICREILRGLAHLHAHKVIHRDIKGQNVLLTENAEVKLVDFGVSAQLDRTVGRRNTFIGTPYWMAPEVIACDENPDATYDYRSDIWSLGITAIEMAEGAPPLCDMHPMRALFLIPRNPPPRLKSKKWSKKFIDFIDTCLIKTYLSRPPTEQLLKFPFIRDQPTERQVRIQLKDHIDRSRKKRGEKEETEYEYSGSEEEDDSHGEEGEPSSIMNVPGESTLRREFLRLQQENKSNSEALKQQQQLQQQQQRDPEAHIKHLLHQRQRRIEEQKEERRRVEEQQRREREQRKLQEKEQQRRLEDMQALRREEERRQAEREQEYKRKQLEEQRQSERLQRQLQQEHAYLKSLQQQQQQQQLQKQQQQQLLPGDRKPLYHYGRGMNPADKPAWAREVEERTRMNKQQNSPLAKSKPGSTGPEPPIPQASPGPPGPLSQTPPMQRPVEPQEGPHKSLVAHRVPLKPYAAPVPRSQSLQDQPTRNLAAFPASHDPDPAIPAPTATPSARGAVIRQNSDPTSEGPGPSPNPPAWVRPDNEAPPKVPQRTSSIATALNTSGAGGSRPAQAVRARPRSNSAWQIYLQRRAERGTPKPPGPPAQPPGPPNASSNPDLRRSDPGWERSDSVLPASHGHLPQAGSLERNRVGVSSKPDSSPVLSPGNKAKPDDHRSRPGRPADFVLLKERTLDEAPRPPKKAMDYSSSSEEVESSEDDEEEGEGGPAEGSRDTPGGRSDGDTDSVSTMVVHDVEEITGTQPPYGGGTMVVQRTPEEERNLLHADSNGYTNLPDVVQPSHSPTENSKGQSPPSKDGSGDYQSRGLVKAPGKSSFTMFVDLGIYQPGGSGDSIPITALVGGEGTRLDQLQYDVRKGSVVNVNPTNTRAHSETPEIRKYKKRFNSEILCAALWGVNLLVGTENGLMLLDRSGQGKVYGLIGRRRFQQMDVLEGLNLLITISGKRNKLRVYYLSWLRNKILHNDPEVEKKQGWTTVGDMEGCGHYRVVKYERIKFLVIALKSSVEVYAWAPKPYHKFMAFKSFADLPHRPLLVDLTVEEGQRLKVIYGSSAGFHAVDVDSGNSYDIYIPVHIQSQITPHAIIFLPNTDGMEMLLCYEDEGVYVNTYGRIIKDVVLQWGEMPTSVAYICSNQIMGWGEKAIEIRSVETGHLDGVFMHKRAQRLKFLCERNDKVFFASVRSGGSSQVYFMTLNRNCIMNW
Sequence of TRAF2 and NCK-interacting protein kinase (Homo sapiens) (Q9UKE5 whole entry, looked up): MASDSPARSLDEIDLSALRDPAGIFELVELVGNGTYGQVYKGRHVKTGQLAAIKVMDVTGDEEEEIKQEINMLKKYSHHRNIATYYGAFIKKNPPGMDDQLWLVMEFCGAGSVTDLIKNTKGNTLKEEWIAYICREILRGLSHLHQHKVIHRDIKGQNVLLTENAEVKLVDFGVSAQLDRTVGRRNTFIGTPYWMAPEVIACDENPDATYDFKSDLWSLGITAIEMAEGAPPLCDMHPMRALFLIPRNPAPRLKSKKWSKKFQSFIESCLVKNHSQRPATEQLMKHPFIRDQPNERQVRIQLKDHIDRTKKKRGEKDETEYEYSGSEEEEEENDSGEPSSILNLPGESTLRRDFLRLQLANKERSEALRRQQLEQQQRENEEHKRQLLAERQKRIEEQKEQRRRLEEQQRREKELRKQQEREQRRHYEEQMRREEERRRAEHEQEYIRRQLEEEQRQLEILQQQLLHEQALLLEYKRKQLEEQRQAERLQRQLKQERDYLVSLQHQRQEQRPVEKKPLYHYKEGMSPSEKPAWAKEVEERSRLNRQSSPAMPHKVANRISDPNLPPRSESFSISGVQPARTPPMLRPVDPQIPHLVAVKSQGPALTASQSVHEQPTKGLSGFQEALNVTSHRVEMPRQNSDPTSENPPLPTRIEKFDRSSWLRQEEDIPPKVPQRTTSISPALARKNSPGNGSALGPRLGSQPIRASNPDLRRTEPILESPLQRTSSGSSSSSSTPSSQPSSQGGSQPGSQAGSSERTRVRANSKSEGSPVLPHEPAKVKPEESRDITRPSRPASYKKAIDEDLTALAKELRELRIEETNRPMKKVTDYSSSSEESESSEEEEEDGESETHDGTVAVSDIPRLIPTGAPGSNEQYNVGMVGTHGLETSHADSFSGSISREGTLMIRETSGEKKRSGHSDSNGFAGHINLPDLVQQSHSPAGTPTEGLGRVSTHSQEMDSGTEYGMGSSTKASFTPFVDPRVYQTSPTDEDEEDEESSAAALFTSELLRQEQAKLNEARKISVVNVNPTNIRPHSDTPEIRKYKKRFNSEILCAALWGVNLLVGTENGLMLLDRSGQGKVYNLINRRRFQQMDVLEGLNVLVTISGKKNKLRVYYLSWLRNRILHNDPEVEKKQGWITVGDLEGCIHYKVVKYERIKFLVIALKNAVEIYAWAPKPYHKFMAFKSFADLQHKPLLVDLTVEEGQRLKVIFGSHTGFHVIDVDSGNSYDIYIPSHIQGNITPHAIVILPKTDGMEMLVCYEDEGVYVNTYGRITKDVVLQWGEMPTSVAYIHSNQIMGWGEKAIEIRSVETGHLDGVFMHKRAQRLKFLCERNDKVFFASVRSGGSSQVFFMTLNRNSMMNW

| Structure (SMILES) | efflux ratio at 1.5 h, 1 µM (MDR1, BCRP) | logD at 2 h [1] | microsomal CLint at 1 µM [2] | hepatocyte CLint at 1 µM [3] | hepatocyte CLint at 1 µM [4] | Time [5] | IC50 [6] | IC50 [7] | inhibition [8] | inhibition [9] | inhibition [10] | inhibition [11] | inhibition [12] | IC50 [13] | IC50 [14] | inhibition in vivo at 100 mg/kg [15] | Activity [16] | inhibition in vivo at 100 mg/kg [17] | inhibition (Mus musculus) |
| --- | --- | --- | --- | --- | --- | --- | --- | --- | --- | --- | --- | --- | --- | --- | --- | --- | --- | --- | --- |
| C=CC(=O)Nc1cc(Nc2nccc(-c3cn(C)c4ccccc34)n2)c(OC)cc1N(C)CCN(C)C [OSIMERTINIB] | 3.2 |  |  |  |  |  |  |  |  |  |  |  |  |  |  |  |  |  |  |
| C=CC(=O)N1CC[C@H](n2cc(-c3ccncc3)c(-c3cccc(/C=C/c4ncc(C5CC5)o4)c3)n2)C1 |  | 4.8 | 214 µL/min/mg | 43 µL/min/1e6 cells | 35 µL/min/1e6 cells | 12 h | 67 nM | 55 nM | 99% | 99% | 57% | 55% | 51% | 10 nM | 9 nM | 62% | < 10% | 13% | Active |

Reference: ChEMBL document CHEMBL5506057, “Discovery and Optimization of Potent, Efficacious and Selective Inhibitors Targeting EGFR Exon20 Insertion Mutations” (J Med Chem, 2024)
